The results in this text go back to patent US20220081433A1, “CYCLIC SULFAMIDE COMPOUNDS FOR TREATMENT OF HBV” (Assembly Biosciences, Inc., priority 2018, published 2022).

This test has as its system HBV. Nature of the test: Activity of test compounds on viral production from HepAD38 cells (viral load by qPCR of HBV core sequence). The settings on record: Hepatitis B virus, 120 h, 5 days, supernatant HBV DNA by qPCR vs DMSO control, read-out: viral load lowering EC50 (Activity). It counts as cell-based. On the procedure: Assay Measuring Activity of Test Compounds on Viral Production from HepAD38 Cells
HepAD38 cells grown in a T-150 flask (Corning, cat#: 430825) with Growth Medium (DMEM/F12 (1:1) (Hyclone, cat#: SH30023.02), 1× Pen/Strep (Invitrogen, cat#: 15140-122), 10% FBS (Tissue Culture Biologics, cat#: 101), 250 μg/mL G418 (Alfa Aesar, cat#: J62671), 1 μg/mL Tetracycline (Teknova, cat#: T3320)) were detached with 0.25% trypsin-EDTA (Invitrogen, cat#: 25200-056). Tetracycline-free treatment medium (15 mL DMEM/F12 (1:1) 1×Pen/step, with 2% FBS, Tet-system approved (Clontech, cat#: 631106) were then added to mix, transferred into a 50 ml conical tube (Falcon, cat#: 21008-918) and spun at 1300 rpm for 5 min. Pelleted cells were then re-suspended/washed with 50 mL of 1×DPBS (Invitrogen, cat#: 14190-136) 2 times and 50 mL treatment medium twice. HepAD38 cells were then re-suspended with 10 mL of treatment medium, syringed and counted. Wells of 96-well clear bottom TC plate (Corning, cat#: 3904) were seeded at 50,000 cells/well in 180 μL of treatment medium, and 20 μL of either 10% DMSO (Sigma, cat#: D4540) as controls or a 10× solution of test compounds in 10% DMSO in treatment media was added for a final compound concentration starting at 10 μM, and plates were incubated in 5% CO2 incubator at 37° C. for 5 days.
Subsequently viral load production was assayed by quantitative PCR (qPCR) of the HBV core sequence. PCR reaction mixture containing forward primers HBV-f 5′-CTGTGCCTTGGGTGGCTTT-3′ (IDT DNA), Reverse primers HBV-r 5′-[…]-3′ (IDT DNA), Fluorescent TaqMan™ Probes HBV-probe 5′-FAM/AGCTCCAAA/ZEN/[…]/3IABkFQ-3′ (IDT DNA), 10 μL/well of PerfeCTa® qPCR ToughMix® (Quanta Biosciences, Cat#: 95114-05K), and 6 μL/well of DEPC water (Alfa Aesar, cat#: J62087) was prepared. Four μL of supernatant was added to 16 μL of the reaction mixture in a qPCR plate (Applied Biosytems, Cat#: 4309849), sealed with a film (Applied Biosystems, Cat#: 4311971), centrifuged for a few seconds, and subsequently run on an Applied Biosystems VIIA7. The PCR mixture was incubated at 45° C. for 5 min, then 95° C. for 10 min, followed by 40 cycles of 10 seconds at 95° C. and 20 seconds at 60° C. Viral load was quantified against known HBV DNA standards by using ViiA™ 7 Software. Viral load in the supernatant from wells with treated cells were compared against viral load in supernatant from DMSO control wells (≥ 3 per plate). Cell viability assay was performed with CellTiter-Glo Luminescent Cell Viability Assay (Promega, cat#: G7573) with modification. Mixed appropriate amount of CellTiter-Glo (CTG) 1×DPBS in a 1:1 ratio, added 100 uL of the mixture to each well followed completely removal of all supernatant in each well without touching cell surface. Incubated the plate at room temperature for 10 min on an orbital shaker, and then read the plate with a plate reader (TECAN M1000 or Envision). EC50 or CC50 values were calculated through curve-fitting of the four-parameter nonlinear-logistic-regression model (GraphPad Prism or Dotmatics). CC50 values were all >10 μM.

SMILES strings stand for the structures.

For orientation: EC50 means the concentration at which the effect is half-maximal. For `CN1C(C(=O)Nc2ccc(F)c(Cl)c2)CC(c2cccc(C3=CCOCC3)c2)NS1(=O)=O` (centres unmarked) [Example 11, N-(3-Chloro-4-fluorophenyl)-5-(3-(3,6-dihydro-2H-pyran-4-yl)phenyl)-2-methyl-1,2,6-thiadiazinane-3-carboxamide 1,1-dioxide], the EC50 was < 1 µM.

Turning to `CN1C(C(=O)Nc2ccc(F)c(Cl)c2)CC(c2cccc(-c3cnn(CC(=O)O)c3)c2)NS1(=O)=O` (centres unmarked) [Example 17, 2-(4-(3-(5-((3-Chloro-4-fluorophenyl)carbamoyl)-6-methyl-1,1-dioxido-1,2,6-thiadiazinan-3-yl)phenyl)-1H-pyrazol-1-yl)acetic acid], the EC50 is 5 to 10 µM.

Consider `CN1[C@H](C(=O)Nc2ccc(F)c(Cl)c2)C[C@H](c2cccc(-c3ccc(Cl)c(Cl)c3)c2)NS1(=O)=O` (single isomer, unassigned) [9-Isomer I], for which the EC50 was < 1 µM.

Take `Cc1cc(-c2cccc(C3CC(C(=O)Nc4ccc(F)c(Cl)c4)N(C)S(=O)(=O)N3)c2)ccc1F` (centres unmarked) [Example 10, N-(3-Chloro-4-fluorophenyl)-5-(4′-fluoro-3′-methyl-[1,1′-biphenyl]-3-yl)-2-methyl-1,2,6-thiadiazinane-3-carboxamide 1,1-dioxide]: the EC50 was < 1 µM.

On to `CN1CCN(c2cccc([C@H]3C[C@@H](C(=O)Nc4ccc(F)c(Cl)c4)N(C)S(=O)(=O)N3)c2)CC1` (single isomer, unassigned) [25-Isomer I], for which the EC50 was < 1 µM.

For `CN1[C@@H](C(=O)Nc2ccc(F)c(Cl)c2)C[C@@H](c2cccc(-n3ccnc3)c2)NS1(=O)=O` (single isomer, unassigned) [27-Isomer II], the EC50 lay in the range of 5 to 10 µM.

With `CN1[C@H](C(=O)Nc2ccc(F)c(Cl)c2)C[C@H](c2cccc(-c3cccc(C(=O)O)c3)c2)NS1(=O)=O` (single isomer, unassigned) [19-Isomer I], the EC50 is < 1 µM.

Turning to `CN1C(C(=O)Nc2ccc(F)c(Cl)c2)CC(c2cccc(-c3cccc(C(=O)O)c3)c2)NS1(=O)=O` (centres unmarked) [Example 19, 3′-(5-((3-Chloro-4-fluorophenyl)carbamoyl)-6-methyl-1,1-dioxido-1,2,6-thiadiazinan-3-yl)-[1,1′-biphenyl]-3-carboxylic acid], the EC50 lay in the range of 1 to 5 µM.

As for `CN1C(C(=O)Nc2ccc(F)c(Cl)c2)CC(c2n[nH]c(=O)n2Cc2ccccc2)NS1(=O)=O` (centres unmarked) [Example 38, 5-(4-Benzyl-5-oxo-4,5-dihydro-1H-1,2,4-triazol-3-yl)-N-(3-chloro-4-fluorophenyl)-2-methyl-1,2,6-thiadiazinane-3-carboxamide 1,1-dioxide], the EC50 was in the range of 5 to 10 µM.

Consider `Cc1cc(-c2cccc([C@H]3C[C@@H](C(=O)Nc4ccc(F)c(Cl)c4)N(C)S(=O)(=O)N3)c2)ccc1F` (single isomer, unassigned) [10-Isomer I], for which the EC50 was < 1 µM.

For the compound `Cc1cc(-c2cccc([C@@H]3C[C@H](C(=O)Nc4ccc(F)c(Cl)c4)N(C)S(=O)(=O)N3)c2)ccc1F` (single isomer, unassigned) [10 Isomer II], the EC50 fell in the range of 5 to 10 µM.

Consider `CN1[C@@H](C(=O)Nc2ccc(F)c(Cl)c2)C[C@@H](c2cccc(N3CCOCC3)c2)NS1(=O)=O` (single isomer, unassigned) [24-Isomer II], for which the EC50 was in the range of 5 to 10 µM.

With `CN1[C@H](C(=O)Nc2ccc(F)c(Cl)c2)C[C@H](c2cccc(-c3cccc(C(F)(F)F)c3)c2)NS1(=O)=O` (single isomer, unassigned) [8-Isomer I], the EC50 was < 1 µM.

For the compound `Cc1nnc(C2CC(C(=O)Nc3ccc(F)c(Cl)c3)N(C)S(=O)(=O)N2)n1C` (centres unmarked) [Example 32, N-(3-Chloro-4-fluorophenyl)-5-(4,5-dimethyl-4H-1,2,4-triazol-3-yl)-2-methyl-1,2,6-thiadiazinane-3-carboxamide 1,1-dioxide], the EC50 is 5 to 10 µM.

Turning to `CN1C(C(=O)Nc2ccc(F)c(Cl)c2)CC(c2cccc(-c3ccccn3)c2)NS1(=O)=O` (centres unmarked) [Example 22, N-(3-Chloro-4-fluorophenyl)-2-methyl-5-(3-(pyridin-2-yl)phenyl)-1,2,6-thiadiazinane-3-carboxamide 1,1-dioxide], the EC50 was < 1 µM.

With `CN1[C@H](C(=O)Nc2ccc(F)c(Cl)c2)C[C@H](c2cccc(-n3ccnc3)c2)NS1(=O)=O` (single isomer, unassigned) [27-Isomer I], the EC50 was < 1 µM.

Consider `Cc1nnc(C2CC(C(=O)Nc3ccc(F)c(Cl)c3)N(C)S(=O)(=O)N2)o1` (centres unmarked) [Example 29, N-(3-Chloro-4-fluorophenyl)-2-methyl-5-(5-methyl-1,3,4-oxadiazol-2-yl)-1,2,6-thiadiazinane-3-carboxamide 1,1-dioxide], for which the EC50 fell in the range of 1 to 5 µM.

Turning to `CC(C)c1ccc(-c2cccc([C@@H]3C[C@H](C(=O)Nc4ccc(F)c(Cl)c4)N(C)S(=O)(=O)N3)c2)cc1` (single isomer, unassigned) [7-Isomer II], the EC50 fell in the range of 1 to 5 µM.

Take `Cc1cc(-c2cccc(C3CC(C(=O)Nc4ccc(F)c(Cl)c4)N(C)S(=O)(=O)N3)c2)ccn1` (centres unmarked) [Example 3, N-(3-Chloro-4-fluorophenyl)-2-methyl-5-(3-(2-methylpyridin-4-yl)phenyl)-1,2,6-thiadiazinane-3-carboxamide 1,1-dioxide]: the EC50 is < 1 µM.

Turning to `CC(C)c1ccc(-c2cccc([C@H]3C[C@@H](C(=O)Nc4ccc(F)c(Cl)c4)N(C)S(=O)(=O)N3)c2)cc1` (single isomer, unassigned) [7-Isomer I], the EC50 is < 1 µM.

Regarding `CN1C(C(=O)Nc2ccc(F)c(Cl)c2)CC(c2cccc(-c3ccc(F)cc3Cl)c2)NS1(=O)=O` (centres unmarked) [Example 5, 5-(2′-Chloro-4′-fluoro-[1,1′-biphenyl]-3-yl)-N-(3-Chloro-4-fluorophenyl)-2-methyl-1,2,6-thiadiazinane-3-carboxamide 1,1-dioxide], the EC50 is < 1 µM.

For the compound `CN1C(C(=O)Nc2ccc(F)c(Cl)c2)CC(c2n[nH]c(=O)n2-c2ccccc2)NS1(=O)=O` (centres unmarked) [Example 37, N-(3-Chloro-4-fluorophenyl)-2-methyl-5-(5-oxo-4-phenyl-4,5-dihydro-1H-1,2,4-triazol-3-yl)-1,2,6-thiadiazinane-3-carboxamide 1,1-dioxide], the EC50 was 1 to 5 µM.

As for `CN1[C@@H](C(=O)Nc2ccc(F)c(Cl)c2)C[C@@H](c2cccc(-c3ccc(C#N)cc3)c2)NS1(=O)=O` (single isomer, unassigned) [4-Isomer II], the EC50 lay in the range of 1 to 5 µM.

Turning to `CN1C(C(=O)Nc2ccc(F)c(Cl)c2)CC(c2cccc(-c3ccccc3)c2)NS1(=O)=O` (centres unmarked) [Example 2, 5-([1,1-Biphenyl]-3-yl)-N-(3-chloro-4-fluorophenyl)-2-methyl-1,2,6-thiadiazinane-3-carboxamide 1,1-dioxide], the EC50 was < 1 µM.

For `CN1C(C(=O)Nc2ccc(F)c(Cl)c2)CC(c2cccc(-c3cccc(C(F)(F)F)c3)c2)NS1(=O)=O` (centres unmarked) [Example 8, N-(3-Chloro-4-fluorophenyl)-2-methyl-5-(3′-(trifluoromethyl)-[1,1′-biphenyl]-3-yl)-1,2,6-thiadiazinane-3-carboxamide 1,1-dioxide], the EC50 was < 1 µM.

As to `CN1C(C(=O)Nc2ccc(F)c(Cl)c2)CC(c2cccc(-c3cncn3C)c2)NS1(=O)=O` (centres unmarked) [Example 20, N-(3-Chloro-4-fluorophenyl)-2-methyl-5-(3-(1-methyl-1H-imidazol-5-yl)phenyl)-1,2,6-thiadiazinane-3-carboxamide 1,1-dioxide], the EC50 was < 1 µM.
